In patent US9278968B2, “Imidazopyridine compounds” (ASTELLAS PHARMA INC., priority 2012, dated 2016):

What was measured:
[1] = test system: average blood pressure of rats; assay: Measurement of antihypertensive effect in vivo; design: species or system Wistar male rats; conditions: oral
Method: As the animals, Wistar male rats, 13- to 18-week (Japan SLC, Inc.) were used. Three days prior to administration of a test compound, a cannula (PE-50, Becton, Dickinson and Company, Japan) filled with heparin physiological saline (200 U/mL, Ajinomoto Pharmaceuticals Co., Ltd.) was inserted and placed in the common carotid artery under anesthesia with intraperitoneal administration of 60 mg/kg of pentobarbital. The other end of the cannula was subcutaneously exposed to the back of the neck. After the recovery period, the placed cannula was connected to a pressure transducer (Life Kit DTS DX-100, Nihon Kohden Corporation) to record the blood pressure waveform through an amplifier (AP-641G, Nihon Kohden Co., Ltd.) and PowerLab (ML870 PowerLab8/30 (AD Instruments Japan)). The heart rate was calculated using a heart rate measuring unit (AT-601G, Nihon Kohden Co., Ltd.). After stabilization of the blood pressure, the test compound was orally administered one time to measure the blood pressure and the heart rate over time. The test compounds were administered by appropriately adding N,N-dimethylformamide, Polyethylene Glycol 400, TWEEN 80, a 0.5% aqueous methylcellulose solution, and a 0.5 M aqueous sodium hydrogen carbonate solution, and 0.1 M hydrochloric acid therein according to the compounds and dissolving it.
Further, the administration doses in Tables represent the administration doses for oral administration, and for example, 3 means 3 mg/kg. Further, the blood pressure reduction represents a maximum change value from the value before administration in the average blood pressure, and for example, −63 indicates reduction by 63 mmHg.

[2] = test system: hind limb blood flow in rats anesthetized with pentobarbital; assay: Blood flow increasing action in vivo (hind limb blood flow, anesthetized rats); design: species or system Wistar male rats; conditions: oral, 2 hours after administration, effective when blood flow rate 130% or more of solvent group
Method: The hind limb blood flow increasing action in rats anesthetized with pentobarbital was confirmed by the following test method.
Wistar male rats, 11- to 14-week (Japan SLC, Inc.) were used. An administration liquid was prepared by adding N,N-dimethyl formamide, Polyethylene Glycol 400, TWEEN 80, a 0.5% methyl cellulose aqueous solution, a 0.5 M aqueous sodium hydrogen carbonate solution, and 0.1 M hydrochloric acid to the test compound and dissolving the Example compound in an appropriate manner depending on the compound. The prepared administration liquid was orally administered, and 2 hours later, the hind limb blood flow increasing action was evaluated under anesthesia with intraperitoneally administration of 60 mg/kg of pentobarbital The hind limb blood flow was measured using a laser blood flow imaging device (PIM II Integral). By taking the average blood flow rate of a group with the administration of a solvent as 100%, the compound was evaluated to be effective when the blood flow rate was 130% or more by the administration of the compound.

[3] = target: human purified sGC (heterodimer of sGCα1 and sGCβ1) (Homo sapiens (Human), UniProt Q02108+Q02153); assay: sGC activation test (cGMP produced, HTRF); assay type: biochemical; conditions: maximum activity of Preparation Example 200 compound (maximum 100 μM) taken as 100%; with SNP; read-out: EC50 (concentration giving 50% of maximum activity)
Method: The activity of sGC was evaluated by measuring the amount of cGMP produced by human purified sGC.
Using an sGCα 1 gene (NCBI accession No. BC028384.2) and an sGCβ1 gene (NCBI accession No. BC047620.1), an N-terminal FLAG tag-fused sGCα1 and an sGCβ1 expression baculovirus were prepared. These viruses were transfected into insect cells Sf9 (Cat. No. 11496-015, Gibco) to express a protein. From the cell lysates of the insect cells, heterodimers of the N-terminal FLAG tag-fused sGCα1 and sGCβ1 were purified with an M2 Affinity Gel (Sigma-Aldrich, Inc.) to obtain a human sGC.
An Example compound was dissolved in DMSO and diluted 20-fold with ultrapure water. 2 μL of the diluted Example compound solution (maximum concentration of 100 μM), 2 μL of a substrate solution [0.5 μM triethanolamine buffer solution, 0.03 μM dithiothreitol, 0.01 μM GTP, 0.04 μM MgCl2, and 0.03 μM sodium nitroprusside (SNP)], and 6 μL of a human enzyme suspension were added to 384-well plates (manufactured by Greiner Bio-One), and incubated at room temperature for one hour. The measurement of the amount of cGMP was carried out, using an HTRF reagent (Cisbio).
The sGC activation action of the Example compound was calculated as an Example compound concentration which gives 50% of a maximum activity (EC50), in which the maximum activity by the addition of a compound shown in Preparation Example 200, 8-(cyclohexylmethoxy)-N-[(1R)-2-hydroxy-1-phenylethyl]-2-methylimidazo[1,2-a]pyridine-3-carboxamide hydrochloride (maximum 100 μM), is taken as 100%. Further, the maximum activity of sGC with the addition of 8-(cyclohexylmethoxy)-N-[(1R)-2-hydroxy-1-phenylethyl]-2-methylimidazo[1,2-a]pyridine-3-carboxamide hydrochloride is 10-fold or more relative to the sGC activation without the addition of the compound, and it is recognized that the compound has a good sGC activating action. […] The test results of some Example compounds that are the compounds of the formula (I) of the present invention are shown below. Further, in Tables, Ex. represents Example number.

Chain of human purified sGC (heterodimer of sGCα1 and sGCβ1) (Q02108 whole entry): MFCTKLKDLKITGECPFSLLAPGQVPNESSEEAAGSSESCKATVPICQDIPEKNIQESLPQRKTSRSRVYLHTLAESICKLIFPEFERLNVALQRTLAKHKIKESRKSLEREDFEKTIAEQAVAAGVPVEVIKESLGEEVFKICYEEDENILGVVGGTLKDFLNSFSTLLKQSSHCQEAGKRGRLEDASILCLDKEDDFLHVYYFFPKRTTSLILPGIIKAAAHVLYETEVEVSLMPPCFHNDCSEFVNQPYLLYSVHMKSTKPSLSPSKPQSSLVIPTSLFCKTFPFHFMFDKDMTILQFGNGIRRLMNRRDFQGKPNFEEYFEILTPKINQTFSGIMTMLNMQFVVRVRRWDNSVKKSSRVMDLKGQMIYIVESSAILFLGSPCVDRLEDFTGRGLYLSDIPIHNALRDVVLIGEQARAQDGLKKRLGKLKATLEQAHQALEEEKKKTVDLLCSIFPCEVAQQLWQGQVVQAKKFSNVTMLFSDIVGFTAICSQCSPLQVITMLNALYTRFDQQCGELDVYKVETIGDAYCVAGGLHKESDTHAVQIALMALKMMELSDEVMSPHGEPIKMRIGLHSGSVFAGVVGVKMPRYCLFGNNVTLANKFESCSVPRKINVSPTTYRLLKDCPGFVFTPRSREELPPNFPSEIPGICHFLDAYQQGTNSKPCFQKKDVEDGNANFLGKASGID
Chain of human purified sGC (heterodimer of sGCα1 and sGCβ1) (Q02153 whole entry): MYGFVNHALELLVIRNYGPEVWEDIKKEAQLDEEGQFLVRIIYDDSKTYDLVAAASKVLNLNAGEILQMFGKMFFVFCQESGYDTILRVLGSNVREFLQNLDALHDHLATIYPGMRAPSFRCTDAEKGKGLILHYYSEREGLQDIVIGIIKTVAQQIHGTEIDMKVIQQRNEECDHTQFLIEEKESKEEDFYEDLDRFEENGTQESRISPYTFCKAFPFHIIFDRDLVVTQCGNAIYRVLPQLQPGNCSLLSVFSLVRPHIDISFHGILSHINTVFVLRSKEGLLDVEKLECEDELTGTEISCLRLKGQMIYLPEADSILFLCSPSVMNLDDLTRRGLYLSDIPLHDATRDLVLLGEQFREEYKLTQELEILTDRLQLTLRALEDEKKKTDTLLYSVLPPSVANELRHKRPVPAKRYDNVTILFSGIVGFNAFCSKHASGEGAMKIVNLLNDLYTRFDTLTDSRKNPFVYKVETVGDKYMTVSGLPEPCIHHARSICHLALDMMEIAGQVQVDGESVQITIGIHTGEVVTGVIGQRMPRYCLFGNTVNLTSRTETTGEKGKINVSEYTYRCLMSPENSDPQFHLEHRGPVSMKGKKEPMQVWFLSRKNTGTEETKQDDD

Row | SMILES | EC50 [3] [nM] | hind limb blood flow increasing action ([2]; 3 mg/kg) | other results
1 | CCn1nnc(C(C)(CO)NC(=O)c2c(C)nc3c(OCc4c(F)cccc4F)cccn23)n1 (stereo not shown) [Example 8, 8-[(2,6-difluorobenzyl)oxy]-N-[2-(2-ethyl-2H-tetrazol-5-yl)-1-hydroxypropan-2-yl]-2-methylimidazo[1,2-a]pyridine-3-carboxamide] | 5700 | exhibited a blood flow increasing action | Blood pressure reduction (maximum change from value before administration in average blood pressure) ([1]; single dose 3 mg/kg): −29 mmHg
2 | Cc1nc(C(C)(CO)NC(=O)c2c(C)nc3c(OCc4c(F)cccc4F)cccn23)no1 (stereo not shown) [Example 41] | 5300 |  | hind limb blood flow increasing action ([2]; 0.3 mg/kg): exhibited a blood flow increasing action
3 | Cc1nc2c(OCc3c(F)cccc3F)cccn2c1C(=O)N[C@]1(c2ccccn2)C[C@@H](O)[C@@H](O)C1 [Example 67] | 24000 | exhibited a blood flow increasing action | 
4 | Cc1cnc([C@@]2(NC(=O)c3c(C)nc4c(OCc5c(F)cccc5F)cccn34)C[C@@H](O)[C@@H](O)C2)s1 [Example 69] | 4600 | exhibited a blood flow increasing action | 
5 | Cc1nc2c(OCc3c(F)cccc3F)cccn2c1C(=O)NC(C)(CO)c1nnn(C2CC2)n1 (stereo not shown) [Example 76] | 5800 | exhibited a blood flow increasing action | 
6 | CCn1nnc([C@H](CO)NC(=O)c2c(C)nc3c(OCc4c(F)cccc4F)cccn23)n1 [Example 81] | 16000 |  | hind limb blood flow increasing action ([2]; 1 mg/kg): exhibited a blood flow increasing action
7 | Cc1nnc([C@](C)(CO)NC(=O)c2c(C)nc3c(OCc4c(F)cccc4F)cccn23)o1 [Example 117, 8-[(2,6-difluorobenzyl)oxy]-N-[(2S)-1-hydroxy-2-(5-methyl-1,3,4-oxadiazol-2-yl)propan-2-yl]-2-methylimidazo[1,2-a]pyridine-3-carboxamide] | 5500 |  | Blood pressure reduction (maximum change from value before administration in average blood pressure) ([1]; single dose 1 mg/kg): −35 mmHg; hind limb blood flow increasing action ([2]; 0.1 mg/kg): exhibited a blood flow increasing action
8 | Cc1nnc([C@](C)(CO)NC(=O)c2c(C)nc3c(OCc4c(F)cccc4F)cccn23)s1 [Example 118, 8-[(2,6-difluorobenzyl)oxy]-N-[(2S)-1-hydroxy-2-(5-methyl-1,3,4-thiadiazol-2-yl)propan-2-yl]-2-methylimidazo[1,2-a]pyridine-3-carboxamide] | 1100 |  | Blood pressure reduction (maximum change from value before administration in average blood pressure) ([1]; single dose 3 mg/kg): −61 mmHg; hind limb blood flow increasing action ([2]; 1 mg/kg): exhibited a blood flow increasing action

Continued, in another order:

Row | EC50 [3] [nM] | SMILES | hind limb blood flow increasing action ([2]; 3 mg/kg) | other results
9 | 2600 | Cc1ncc(C(C)(CO)NC(=O)c2c(C)nc3c(OCc4c(F)cccc4F)cccn23)s1 (stereo not shown) [Example 2, 8-[(2,6-difluorobenzyl)oxy]-N-[1-hydroxy-2-(2-methyl-1,3-thiazol-5-yl)propan-2-yl]-2-methylimidazo[1,2-a]pyridine-3-carboxamide] | exhibited a blood flow increasing action | Blood pressure reduction (maximum change from value before administration in average blood pressure) ([1]; single dose 3 mg/kg): −56 mmHg
10 | 720 | Cc1nc2c(OCc3c(F)cccc3F)cccn2c1C(=O)N[C@@](C)(CO)c1ccccc1 [Example 9] |  | Blood pressure reduction (maximum change from value before administration in average blood pressure) ([1]; single dose 3 mg/kg): −63 mmHg; hind limb blood flow increasing action ([2]; 0.3 mg/kg): exhibited a blood flow increasing action
11 | 2200 | Cc1nc2c(OCc3c(F)cccc3F)cccn2c1C(=O)NC(C)(CO)c1ccc(F)c(CO)c1 (stereo not shown) [Example 52] | exhibited a blood flow increasing action | 
12 | 2700 | Cc1nc2c(OCc3c(F)cccc3F)cccn2c1C(=O)NC(CO)(CO)c1ccc(F)cc1 [Example 54] | exhibited a blood flow increasing action | Blood pressure reduction (maximum change from value before administration in average blood pressure) ([1]; single dose 3 mg/kg): −56 mmHg
13 | 3800 | Cc1nc2c(OCc3c(F)cccc3F)cccn2c1C(=O)NC(CO)(CO)c1ccc(Cl)cn1 [Example 70] |  | hind limb blood flow increasing action ([2]; 1 mg/kg): exhibited a blood flow increasing action
14 | 2700 | Cc1cnc(C(CO)(CO)NC(=O)c2c(C)nc3c(OCc4c(F)cccc4F)cccn23)s1 [Example 72] |  | hind limb blood flow increasing action ([2]; 1 mg/kg): exhibited a blood flow increasing action
15 | 1300 | Cc1cnc([C@](C)(CO)NC(=O)c2c(C)nc3c(OCc4c(F)cccc4F)cccn23)s1 [Example 77] |  | hind limb blood flow increasing action ([2]; 0.3 mg/kg): exhibited a blood flow increasing action
16 | 2700 | Cc1nc2c(OCc3c(F)cccc3F)cccn2c1C(=O)N[C@@H](CO)c1nnn(C(F)F)n1 [Example 83] |  | hind limb blood flow increasing action ([2]; 1 mg/kg): exhibited a blood flow increasing action
17 | 1500 | Cc1nc2c(OCc3c(F)cccc3F)cccn2c1C(=O)NC(C)(CO)c1nnc(C(F)(F)F)o1 (stereo not shown) [Example 91] |  | hind limb blood flow increasing action ([2]; 0.3 mg/kg): exhibited a blood flow increasing action
18 | 3400 | Cc1nc2c(OCc3c(F)cccc3F)cccn2c1C(=O)NC(CO)(CO)c1nnn(C(F)F)n1 [Example 96] |  | Blood pressure reduction (maximum change from value before administration in average blood pressure) ([1]; single dose 1 mg/kg): −21 mmHg; hind limb blood flow increasing action ([2]; 0.3 mg/kg): exhibited a blood flow increasing action
19 | 730 | Cc1nc2c(OCc3c(F)cccc3F)cccn2c1C(=O)N[C@@](C)(CO)c1nnn(C(F)F)n1 [Example 114, 8-[(2,6-difluorobenzyl)oxy]-N-{(2R)-2-[2-(difluoromethyl)-2H-tetrazol-5-yl]-1-hydroxypropan-2-yl}-2-methylimidazo[1,2-a]pyridine-3-carboxamide] |  | Blood pressure reduction (maximum change from value before administration in average blood pressure) ([1]; single dose 0.3 mg/kg): −35 mmHg; hind limb blood flow increasing action ([2]; 0.03 mg/kg): exhibited a blood flow increasing action
